In patent US9969744B2, “Compounds for use in cognition improvement” (FUNDACIÓN PARA LA INVESTIGACIÓN MÉDICA APLICADA, priority 2014, dated 2018):
Marks after values point to notes of the source that are not given here.

Columns and labels:
aged-Tg2576 mice = assay: Memory function in aged-Tg2576 mice: Fear Conditioning (FC); format: in vivo; conditions: Tg2576 mice (16-18 month), chronic treatment 3-5 weeks, 20 mg/Kg i.p.; standard error in brackets
Protocol: The effect on memory function of compounds of the invention was studied in Tg2576 mice (16-18 month) after a chronic treatment of 3-5 weeks by using two different behavioral tasks: the Fear Conditioning (FC) and the Morris water maze (MWM) test, Table 5 (below)
The behavioural procedure of FC task involved three phases: habituation, training and testing. During habituation phase, mice were habituated to the conditioning box (context) for 5 min with no stimuli presented. 24 hours later (training phase), mice were placed in the training chamber and allowed to explore for 2 min, afterward, a footshock (0.3 mA) unconditioned stimulus was administered (2 s) and 30 s after mice were returned to their home cage. Mice were returned to the conditioning chamber 24 h after training and allowed to explore the context for 2 min, during which freezing behavior was recorded (contextual long term memory). Freezing scores were expressed as percentages. The conditioning procedure was carried out in a StartFear system (Panlab S.L., Barcelona, Spain) that allows recording and analysis of the signal generated by the animal movement through a high sensitivity Weight Transducer system. The analogical signal is transmitted to the FREEZING and STARTLE software modulated through the load cell unit for recording purposes and posterior analysis in terms of activity/immobility.

[1] = Pharmacokinetics: plasma and brain concentration in wild type mice; format: in vivo; conditions: 1 hour after 40 mg/Kg i.p.
Protocol: Plasma and brain samples for measuring compounds concentrations were collected at predetermined times from four wild type mice per point. Three time points were measured: 0.25, 0.5 and 1.0 hour. Compounds concentration was measured using a Xevo-TQ MS triple quadropole mass spectrometer with an electrospray ionization (ESI) source and an Acquity UPLC (Waters, Manchester, UK).
Compounds solutions were prepared by dissolving the samples in DMSO and this solution was made up to a final volume by addition of a mixture of Tween 20 and 0.9% NaCl (1/1/8, v:v:v, DMSO/Tween 20/saline). Compounds were injected as a single intraperitoneal injection. Animals were killed by decapitation.
Plasma. Blood was collected into tubes containing EDTA and plasma was collected via centrifugation (4° C., 13200 rpm, 5 min) and stored at −80° C. until analysis.
Brain. Brains were collected immediately after mice death. The brains were excised, weighed and frozen at −80° C. until further process for analysis.
Chromatographic separation was performed by gradient elution at 0.4 mL/min using an Acquity UPLC BEH C18 column (100×2.1 mm, 1.7 μm particle size; Waters). The mobile phase consisted of A: water with 0.1% formic acid, B: methanol with 0.1% formic acid. After 1.5 min at the initial condition of 95% A, solvent B was increased from 5% to 100% over 2 min, maintained at 100% for 1.5 min, then a linear gradient to initial conditions was applied for 0.1 min and maintained for 3.4 minutes to re-equilibrate the column, giving a cycle time of 8.5 min. The autosampler temperature was set at 10° C. and column temperature at 45° C.
Compounds were monitored using a triple quadrupole mass spectrometer equipped with an electrospray ionization interface. For detection and quantification, a capillary voltage of 3.5 kV and a cone voltage of 38 V were used. Source and desolvation temperatures were 150° C. and 650° C., respectively. Ultra-high purity nitrogen was used for cone gas (75 L h^−1) and desolvation gas (1000 L h^−1). The electrospray ionization operated in the positive mode, and the collision gas used was ultra-pure argon at a flow rate of 0.15 mL min^−1.
Quantification was achieved by external calibration using matrix-matched standards. Concentrations were calculated using a weighted least-squares linear regression (W=1/x). Calibration standards were prepared by adding the appropriate volume of diluted solutions of the compound (made in a mixture of methanol and water, 50:50, v:v) to aliquots of 50 uL of blank plasma or to 75 mg of homogenized blank brain. 2% formic acid in acetonitrile was added to precipitate the proteins. The mixture was then agitated for 10 min and centrifuged at 13200 rpm for 5 min at 4° C. […]

SMILES: CCCc1nn(C)c2c(=O)[nH]c(-c3cc(Cc4ccc(C(=O)Nc5ccccc5N)cc4)ccc3OCC)nc12 [Example 1-11, N-(2-aminophenyl)-4-[[4-ethoxy-3-(1-methyl-7-oxo-3-propyl-6H-pyrazolo[4,3-d]pyrimidin-5-yl)phenyl]methyl]benzamide]
- FC (% freezing) (aged-Tg2576 mice): 59.65 (9.2)^c %
- Crosses BBB? [1]: Yes
- C (brain) ([1]; standard deviation in brackets): 1903.4 (565.8)^a nmol/Kg
- C (plasma) ([1]; standard deviation in brackets): 12132.5 (1762.9)^a nM
- Kp at 1 h ([1]; mouse, brain/plasma, intraperitoneal, read-out: Brain/Plasma ratio): 0.157
